Laboratory results taken from US5409937A, “Hexahydrofuro(2,3-b)furans as PAF antagonists” (British Biotech Pharmaceuticals Limited, priority 1991, dated 1995).

target: T1, PAF receptor (Homo sapiens, UniProt P25105); assay: Inhibition of [^3 H]-PAF binding to washed human platelet membranes; settings: 0.5 nM [^3 H]-PAF, 1 hour at 0° C., pH 7.0, 0.25% BSA
T1 construct: washed human platelet membranes; from tissue; host or cells: human platelets (platelet concentrates from a hospital blood bank), lysed washed membranes
Protocol: Inhibition of [^3 H]-PAF binding to washed human platelet membranes
In common with the compounds of the invention (general formula I) those of Examples 1-13 it PAF-induced functions at both cellular and tissue levels by inhibition of PAF binding to its specific receptor site. The inhibition of [^3 H]-PAF binding to washed human platelet membranes by representative compounds was determined by isotopic labelling and filtration techniques. Platelet concentrates were obtained from a hospital blood bank. These platelet concentrates (500-2500 ml.) were centrifuged at 800 rpm for 10 minutes in a SORVALL RC3B centrifuge to remove the red blood cells present. (The word SORVALL is a trade mark.) The supenatant was subsequently centrifuged at 3,000 rpm in a SORVALL RC3B centrifuge to pellet the platelets present. The platelet rich pellets were resuspended in a minimum volume of buffer (150 mM NaCl, 10 mM Tris, 2 mM EDTA, pH 7.5) and layered onto Ficoll-Paque gradients, 9 ml platelet concentrate to 2 ml Ficoll, and centrifuged at 1,900 rpm for 15 minutes in a SORVALL RT6000 centrifuge. This step removes the residual red blood cells and other nonspecific material such as lymphocytes from the preparation. The platelets which form a band between the plasma and the Ficoll were removed, resuspended in the above buffer and centrifuged at 3,000 rpm for 10 minutes in a SORVALL RT6000 centrifuge. […]
The assay was conducted by preparing a series of Tris-buffered solutions of the selected antagonist of predetermined concentrations. […] Each washed residue was dried under vacuum on a sampling manifold and placed into vials containing 20 ml of OPTIPHASE MP scintillation fluid and the radioactivity counted in a liquid scintillation counter. (The word OPTIPHASE is a trade mark.) Defining the counts for total binding with antagonist from a test sample as "TBA"; the counts for total binding from the control sample C1 as "TB"; and the counts for nonspecific binding from the control sample C2 as "NSB", the percent inhibition of each test antagonist can be determined by the following equation: […]

T1 sequence (P25105 whole entry): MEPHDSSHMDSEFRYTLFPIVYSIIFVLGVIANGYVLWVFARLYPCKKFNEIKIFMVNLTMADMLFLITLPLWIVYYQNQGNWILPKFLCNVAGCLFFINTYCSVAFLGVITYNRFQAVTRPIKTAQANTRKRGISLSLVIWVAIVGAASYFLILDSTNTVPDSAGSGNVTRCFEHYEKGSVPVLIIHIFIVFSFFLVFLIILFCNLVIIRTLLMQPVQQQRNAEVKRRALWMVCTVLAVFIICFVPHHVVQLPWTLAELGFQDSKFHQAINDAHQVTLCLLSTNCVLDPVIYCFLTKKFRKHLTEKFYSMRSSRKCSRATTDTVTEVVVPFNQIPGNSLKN

Going from `Cc1nc2ccccc2n1C[C@H]1C[C@@H]2C[C@@H](c3ccc(F)cc3)O[C@@H]2O1` (relative stereo) [1(d), (2R*, 3aS*, 5S*, 6aR*)-5-(4-Fluorophenyl)-2-(1H-2-methylbenzimidazol-1-ylmethyl)hexahydrofuro[2,3-b]furan] to `Cc1nc2ccccc2n1C[C@H]1C[C@@H]2C[C@H](c3ccc(F)cc3)O[C@@H]2O1` (relative stereo) [1(e), (2R*, 3aS*, 5R*, 6aR*)-5-(4-fluorophenyl)-2-(1H-2-methylbenzimidazol-1-ylmethyl)hexahydrofuro[2,3-b]furan], the IC50 falls from 8000 nM to 450 nM (18-fold).

`Cc1nc2cnccc2n1C[C@H]1C[C@@H]2C[C@@H](c3ccc(F)cc3)O[C@@H]2O1` (relative stereo) [Example 2, 5-(4-Fluorophenyl)-2-(1H-2-methylimidazo[4,5-c]pyrid-1-ylmethyl)hexahydrofuro[2,3-b]furan] gave an IC50 of 240 nM.
